For orientation: IC50 means the point on the concentration scale where inhibition reaches its midpoint.

In this assay the target is B-Raf (V600E)-kinase (Homo sapiens (Human), UniProt P15056, V600E). Briefly: Kinase test B-Raf (V600E). Type of assay: biochemical. Conditions: 1 h preincubation, 250 μM ATP. The method, then: In a dilution series 10 μL/well of test substance solution are placed in a multiwell plate. The dilution series is selected so that generally a range of concentrations of 2 μM to 0.119 nM or 0.017 nM is covered. If necessary the initial concentration of 2 μM is changed to 50 μM, 10 μM or 0.4 μM or 0.2857 μM and further dilution is carried out accordingly. The final concentration of DMSO is 5%. 10 μL/well of the B-Raf (V600E)-kinase solution are pipetted in (containing 0.5 ng B-Raf (V600E)-kinase (e.g. from Upstate) in 20 mM Tris-HCl pH 7.5, 0.1 mM EDTA, 0.1 mM EGTA, 0.286 mM sodium orthovanadate, 10% glycerol, 1 mg/mL bovine serum albumin, 1 mM dithiothreitol) and the mixture is incubated for 1 h at RT under with shaking. The kinase reaction is started by the addition of 20 μL/well ATP solution [final concentration: 250 μM ATP, 30 mM Tris-HCl pH 7.5, 0.02% Brij, 0.2 mM sodium orthovanadate, 10 mM magnesium acetate, 0.1 mM EGTA, phosphatase cocktail (Sigma, #P2850, dilution recommended by the manufacturer)] and 10 μL/well MEK1 solution [containing 50 ng biotinylated MEK1 (prepared from purified MEK1 according to standard procedure, e.g. with EZ-Link Sulpho-NHS-LC-Biotin reagent, Pierce, #21335)] and carried out for 60 min at RT with constant shaking. The reaction is stopped by the addition of 12 μL/well of a 100 mM EDTA solution and incubation is continued for a further 5 min. 55 μL/well of the reaction solution are transferred into a streptavidin-coated plate (e.g. Streptawell HighBond, Roche, #11989685001) and shaken gently for 1 h at RT, in order to bind biotinylated MEK1 to the plate. After elimination of the liquid the plate is washed five times with 200 μL/well of 1×PBS and 100 μL/well solution of primary antibody plus europium-labelled secondary antibody [Anti Phospho-MEK (Ser217/221), Cell Signaling, #9121 and Eu-N1 labelled goat-anti-rabbit antibody, Perkin Elmer, #AD0105] is added, the primary antibody is diluted 1:2000 and the secondary antibody is diluted to 0.4-0.5 μg/mL in Delfia Assay Buffer (Perkin Elmer, #1244-111). After 1 h shaking at RT the solution is poured away and washed five times with 200 μL/well Delfia Wash Buffer (Perkin Elmer, #4010-0010/#1244-114). After the addition of 200 μL/well Enhancement Solution (Perkin Elmer, #4001-0010/#1244-105) the mixture is shaken for 10 min at RT and then measured in a Wallac Victor using the program “Delfia Time Resolved Fluorescence (Europium)”. IC50 values are obtained from these dosage-activity curves using a software program (GraphPadPrizm).
B-Raf (V600E)-kinase, sequence (P15056 whole entry V600E): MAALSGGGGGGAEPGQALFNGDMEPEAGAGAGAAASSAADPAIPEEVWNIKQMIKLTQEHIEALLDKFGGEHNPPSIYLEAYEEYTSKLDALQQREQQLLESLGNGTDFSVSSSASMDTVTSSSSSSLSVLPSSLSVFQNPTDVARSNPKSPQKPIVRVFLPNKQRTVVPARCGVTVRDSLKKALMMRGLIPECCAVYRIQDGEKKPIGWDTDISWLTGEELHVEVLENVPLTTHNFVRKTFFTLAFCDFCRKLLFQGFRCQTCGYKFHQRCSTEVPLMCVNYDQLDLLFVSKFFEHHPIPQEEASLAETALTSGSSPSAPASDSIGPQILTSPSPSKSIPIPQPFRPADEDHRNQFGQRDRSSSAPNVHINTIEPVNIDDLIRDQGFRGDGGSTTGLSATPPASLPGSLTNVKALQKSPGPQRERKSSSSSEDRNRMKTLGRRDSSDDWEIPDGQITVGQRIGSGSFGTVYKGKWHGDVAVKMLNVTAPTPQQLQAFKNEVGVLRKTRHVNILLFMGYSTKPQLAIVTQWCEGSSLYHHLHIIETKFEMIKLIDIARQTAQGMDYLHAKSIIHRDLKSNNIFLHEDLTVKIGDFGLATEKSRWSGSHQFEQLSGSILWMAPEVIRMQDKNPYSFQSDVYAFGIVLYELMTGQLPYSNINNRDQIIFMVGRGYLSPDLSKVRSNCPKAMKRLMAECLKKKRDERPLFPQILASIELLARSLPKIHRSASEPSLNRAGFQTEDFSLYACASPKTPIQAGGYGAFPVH
Regarding `Cc1ccc(C(=O)Nc2cc(C(C)(C)C)on2)cc1-n1cc(-c2cncc(N3CCN(C)CC3)c2)nn1` [I-1], the IC50 turned out to be 8 nM. `Cc1ccc(C(=O)Nc2cc(C(C)(C)C)ccn2)cc1-n1cc(-c2cncc(N3CCN(C)CC3)c2)nn1` [I-2] gave an IC50 of 18 nM. Compared with the last compound, the IC50 is about 2.2-fold higher. In the case of `Cc1ccc(C(=O)Nc2cc(C(C)(C)C)on2)cc1-n1cc(-c2cncc(N(C)CCN(C)C)c2)nn1` [I-3] it was 7 nM.

On to `Cc1ccc(C(=O)Nc2cc(C(C)(C)C)on2)cc1-n1cc(-c2cncc(N3CCN(C(C)(C)C)CC3)c2)nn1` [I-4], for which the IC50 turned out to be 12 nM. Against the preceding compound, the IC50 is about 1.7-fold higher. The result for `Cc1ccc(C(=O)Nc2cc(C(C)(C)C)on2)cc1-n1cc(-c2cncc(N3CCN(C4CCCC4)CC3)c2)nn1` [I-5] reads 14 nM; that for `C=CCN1CCN(c2cncc(-c3cn(-c4cc(C(=O)Nc5cc(C(C)(C)C)on5)ccc4C)nn3)c2)CC1` [I-6], 22 nM; that for `CCN1CCC2(CCN(c3cncc(-c4cn(-c5cc(C(=O)Nc6cc(C(C)(C)C)on6)ccc5C)nn4)c3)C2)C1` (centres unmarked) [I-7], 9 nM.

`Cc1ccc(C(=O)Nc2cc(C(C)(C)C)on2)cc1-n1cc(-c2cncc(N3CCN(CC4CCCO4)CC3)c2)nn1` (centres unmarked) [I-8]: it took 22 nM to reach half-maximal inhibition (IC50). On to `Cc1ccc(C(=O)Nc2cc(C(C)(C)C)on2)cc1-n1cc(-c2cncc(N3CCC(CN(C)C)CC3)c2)nn1` [I-9], for which the half-maximal inhibitory concentration (IC50) amounted to 12 nM. This IC50 is about 1.8-fold lower than that of the compound before. In the case of `Cc1ccc(C(=O)Nc2cc(C(C)(C)C)on2)cc1-n1cc(-c2cncc(N(C)C3CCOC3)c2)nn1` (centres unmarked) [I-10] it was 8 nM; in that of `Cc1ccc(C(=O)Nc2cc(C(C)(C)C)on2)cc1-n1cc(-c2cncc(NC3CCOC3)c2)nn1` (centres unmarked) [I-11], 6 nM; in that of `Cc1ccc(C(=O)Nc2cc(C(C)(C)C)on2)cc1-n1cc(-c2cncc(NC(C)(C)C)c2)nn1` [I-12], 18 nM. The result for `Cc1ccc(C(=O)Nc2cc(C(C)(C)C)n[nH]2)cc1-n1cc(-c2cncc(N3CCOCC3)c2)nn1` [I-13] reads 12 nM.

`Cc1ccc(C(=O)Nc2cc(C(C)(C)C)on2)cc1-n1cc(-c2cncc(NC(C)C)c2)nn1` [I-14] had an IC50 of 17 nM. The compound `Cc1ccc(C(=O)Nc2cc(C(C)(C)C)on2)cc1-n1cc(-c2cncc(N3CCN(C)C(C)C3)c2)nn1` (centres unmarked) [I-15] displayed an IC50 of 21 nM. Regarding `Cc1ccc(C(=O)Nc2cc(C(C)(C)C)on2)cc1-n1cc(-c2cncc(N3CCN(CCN4CCOCC4)CC3)c2)nn1` [I-16], the IC50 amounted to 14 nM.

On to `Cc1ccc(C(=O)Nc2cc(C(C)(C)C)on2)cc1-n1cc(-c2cncc(N3CCCOCC3)c2)nn1` [I-17], for which half-maximal inhibition (IC50) required 16 nM. In the case of `Cc1ccc(C(=O)Nc2cc(C(C)(C)C)on2)cc1-n1cc(-c2cncc(N(C)C)c2)nn1` [I-18] it was 13 nM; in that of `Cc1ccc(C(=O)Nc2cc(C(C)(C)C)on2)cc1-n1cc(-c2cncc(N3CCC3)c2)nn1` [I-19], 11 nM. `COCC(C)Nc1cncc(-c2cn(-c3cc(C(=O)Nc4cc(C(C)(C)C)on4)ccc3C)nn2)c1` (centres unmarked) [I-20]: inhibition was half-maximal at 31 nM (IC50). `Cc1ccc(C(=O)Nc2cc(C(C)(C)C)on2)cc1-n1cc(-c2cncc(NCC(F)(F)F)c2)nn1` [I-21] came in with an IC50 of 50 nM. Compared with the last compound, the IC50 is about 1.6-fold higher. In turn, `Cc1ccc(C(=O)Nc2cc(C(C)(C)C)on2)cc1-n1cc(-c2cncc(NCCF)c2)nn1` [I-22] had an IC50 of 16 nM.

With `Cc1ccc(C(=O)Nc2cc(C(C)(C)C)on2)cc1-n1cc(-c2cncc(N3C[C@@H](C)O[C@@H](C)C3)c2)nn1` [I-23], it took 26 nM to reach half-maximal inhibition (IC50).

For the compound `Cc1ccc(C(=O)Nc2cc(C(C)(C)C)nn2C)cc1-n1cc(-c2cncc(N3CCOCC3)c2)nn1` [I-24], the IC50 was 19 nM. The IC50 values of the last two compounds are within 1.5-fold of each other. Regarding `Cc1ccc(C(=O)Nc2cc(C(C)(C)C)on2)cc1-n1cc(-c2cncc(N(C)CC3CCCO3)c2)nn1` (centres unmarked) [I-25], 45 nM corresponded to half-maximal inhibition (IC50). The result for `Cc1ccc(C(=O)Nc2cc(C(C)(C)C)on2)cc1-n1cc(-c2cncc(N3CCN(C4CC4)CC3)c2)nn1` [I-26] reads 28 nM. The result for `CCCCN1CCN(c2cncc(-c3cn(-c4cc(C(=O)Nc5cc(C(C)(C)C)on5)ccc4C)nn3)c2)CC1` [I-27] reads 15 nM; that for `Cc1ccc(C(=O)Nc2cc(C(C)(C)C)on2)cc1-n1cc(-c2cncc(NC3CC3)c2)nn1` [I-28], 10 nM. In the case of `Cc1ccc(C(=O)Nc2cc(C(C)(C)C)on2)cc1-n1cc(-c2cncc(N(C)C3CCOCC3)c2)nn1` [I-29] it was 7 nM. Compound `CNc1cncc(-c2cn(-c3cc(C(=O)Nc4cc(C(C)(C)C)on4)ccc3C)nn2)c1` [I-30] yielded an IC50 of 14 nM. In the case of `Cc1ccc(C(=O)Nc2cc(C(C)(C)C)on2)cc1-n1cc(-c2cncc(N3CCN(CC(F)(F)F)CC3)c2)nn1` [I-31] it was 98 nM; in that of `Cc1ccc(C(=O)Nc2cc(C(C)(C)C)on2)cc1-n1cc(-c2cncc(N3CC(C)NC(C)C3)c2)nn1` (centres unmarked) [I-32], 9 nM; in that of `Cc1ccc(C(=O)Nc2cc(C(C)(C)C)on2)cc1-n1cc(-c2cncc(NCC3CCCO3)c2)nn1` (centres unmarked) [I-34], 9 nM. In the case of `Cc1ccc(C(=O)Nc2cc(C(C)(C)C)on2)cc1-n1cc(-c2cncc(N(C)C(C)C)c2)nn1` [I-35] it was 45 nM; in that of `COCCNc1cncc(-c2cn(-c3cc(C(=O)Nc4cc(C(C)(C)C)on4)ccc3C)nn2)c1` [I-36], 16 nM. In turn, `Cc1ccc(C(=O)Nc2cc(C(C)(C)C)on2)cc1-n1cc(-c2cncc(N3CCN(C(C)C)C(C)C3)c2)nn1` (centres unmarked) [I-37] gave an IC50 of 20 nM. This IC50 and that of the compound before are within 1.5-fold of each other. In turn, `Cc1ccc(C(=O)Nc2cc(C(C)(C)C)on2)cc1-n1cc(-c2cncc(NC3CCOCC3)c2)nn1` [I-38] gave an IC50 of 10 nM. Against the preceding compound, the IC50 is about 2-fold lower. `Cc1ccc(C(=O)Nc2cc(C(C)(C)C)on2)cc1-n1cc(-c2cncc(N3CCCC3)c2)nn1` [I-39] registered an IC50 of 41 nM. This IC50 lies about 4.1-fold higher than the previous one. The result for `COCCCN1CCN(c2cncc(-c3cn(-c4cc(C(=O)Nc5cc(C(C)(C)C)on5)ccc4C)nn3)c2)CC1` [I-40] reads 19 nM; that for `CCCN1CCN(c2cncc(-c3cn(-c4cc(C(=O)Nc5cc(C(C)(C)C)on5)ccc4C)nn3)c2)CC1` [I-41], 8 nM; that for `Cc1ccc(C(=O)Nc2cc(C(C)(C)C)on2)cc1-n1cc(-c2cncc(N3CCCCC3)c2)nn1` [I-42], 61 nM. For `Cc1ccc(C(=O)Nc2cc(C(C)(C)C)on2)cc1-n1cc(-c2cncc(NC3CCCC3)c2)nn1` [I-43], inhibition was half-maximal at 38 nM (IC50). Compared with the last compound, the IC50 is about 1.6-fold lower. The result for `Cc1ccc(C(=O)Nc2cc(C(C)(C)C)on2)cc1-n1cc(-c2cncc(N3CCN(C(C)C)CC3)c2)nn1` [I-44] reads 11 nM.

`COCCN1C(C)CN(c2cncc(-c3cn(-c4cc(C(=O)Nc5cc(C(C)(C)C)on5)ccc4C)nn3)c2)CC1C` (centres unmarked) [I-45] displayed an IC50 of 29 nM. Against the preceding compound, the IC50 is about 2.6-fold higher. The result for `Cc1ccc(C(=O)Nc2cc(C(C)(C)C)on2)cc1-n1cc(-c2cncc(NCCN(C)C)c2)nn1` [I-46] reads 7 nM; that for `Cc1ccc(C(=O)Nc2cc(C(C)(C)C)on2)cc1-n1cc(-c2cncc(N3CCOCC3)c2)nn1` [I-47], 10 nM; that for `CCN1CCN(c2cncc(-c3cn(-c4cc(C(=O)Nc5cc(C(C)(C)C)on5)ccc4C)nn3)c2)CC1` [I-48], 6 nM. The result for `CCOCCN1CCN(c2cncc(-c3cn(-c4cc(C(=O)Nc5cc(C(C)(C)C)on5)ccc4C)nn3)c2)CC1` [I-49] reads 29 nM. In the case of `Cc1ccc(C(=O)Nc2cc(C(C)(C)C)on2)cc1-n1cc(-c2cncc(N3CCN(CC(C)C)CC3)c2)nn1` [I-50] it was 13 nM. Compound `Cc1ccc(C(=O)Nc2cc(C(C)(C)C)on2)cc1-n1cc(-c2cncc(N3CCC(N(C)C)CC3)c2)nn1` [I-51] came in with an IC50 of 12 nM.

Values taken from US9290507B2, “B-RAF kinase inhibitors” (Boehringer Ingelheim International GmbH, priority 2010, dated 2016).
